Experiment: Breakdown of active substance during preparation of wax premix by the melt method
Type: physicochemical
Conditions: comparative Example C, montan wax melt at 110° C.
Description: Preparation of a wax premix by the melt method.
32 parts by weight of montan wax in sheet form are heated, in a mixer, at 110° C. to give a melt. To this melt there are added
15 parts by weight of cyclosulfamuron in the form of particles with an average diameter of 5μ with stirring at 110° C. The resulting suspension is stirred at high speed for 10 minutes at 110° C. and then treated portionwise with
26.5 parts by weight of highly-disperse silica while stirring is continued at full mixer speed. The resulting flowable powder is cooled to room temperature with stirring and with addition of
26.5 parts by weight of talc.
This gives a wax premix consisting of agglomerated particles. Approximately 10 percent by weight of the cyclosulfamuron present are broken down.

COc1cc(OC)nc(NC(=O)NS(=O)(=O)Nc2ccccc2C(=O)C2CC2)n1 [cyclosulfamuron]
cyclosulfamuron present broken down: Approximately 10 percent by weight
